As a reminder, the melting point is the temperature, or range, at which the solid turns liquid.

Regarding `COc1cccc([C@H]2O[C@H](Cc3ncc(CC(=O)O)s3)C(=O)N(CC(C)(C)CO)c3ccc(Cl)cc32)c1OC` [Example 1, (2-{[(3R,5S)-7-chloro-5-(2,3-dimethoxyphenyl)-1-(3-hydroxy-2,2-dimethylpropyl)-2-oxo-1,2,3,5-tetrahydro-4,1-benzoxazepin-3-yl]methyl}-1,3-thiazol-5-yl)acetic acid], the melting point is 219 to 222 °C (dec.).
